Reference: patent publication US9102648B1, “Bioavailable diacylhydrazine ligands for modulating the expression of exogenous genes via an ecdysone receptor complex” (Intrexon Corporation, priority 2003, dated 2015)
Read-outs that look alike come from different tables or passages of the source.

Key:
[1] = target: GAL4 DBD (1-147)-CfEcR(DEF)/VP16AD-βRXREF-LmUSPEF (Choristoneura fumiferana, UniProt O77240); experiment: cell-based; conditions: for Fold Induction, 27-63 Assay, 3.3 uM: 3.3 uM ligand; for Fold Induction, 27-63 Assay, 3.3 uM / Fold Induction, 27-63 Assay, 33 uM: RLU ligand treated / RLU DMSO treated cells; for Fold Induction, 27-63 Assay, 33 uM: 33 uM ligand; for 27-63 assay Rel Max FI: maximum fold induction at any concentration relative to that of GS-E ligand, CHO 27-63 cells
[2] = target: GAL4 DBD-CfEcR(DEF)/VP16AD-MmRXRE (Choristoneura fumiferana, UniProt O77240); experiment: 13B3 Assay (CHO stable cell line, luciferase reporter); conditions: for Fold Induction, 13B3 Assay, 33 uM: 33 uM ligand; for Fold Induction, 13B3 Assay, 33 uM / Fold Induction, 13B3 Assay, 3.3 uM: RLU ligand treated / RLU DMSO treated cells; for Fold Induction, 13B3 Assay, 3.3 uM: 3.3 uM ligand; for 13B3 assay Rel Max FI: maximum fold induction at any concentration relative to that of GS-E ligand, CHO 13B3 cells; for fold induction at 3.3 µM: read-out: Fold Induction, 13B3 Assay, 3.3 uM; for fold induction at 33 µM: read-out: Fold Induction, 13B3 Assay, 33 uM
Procedure, shortened: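 CHO 13B3 clone stably expressing GAL4 DBD–CfEcR(DEF) and VP16AD–MmRXR(DE) with GAL4 RE–luciferase reporter; cells plated 24 h at 37 °C, then treated with ligands (DMSO stocks diluted 300-fold), 8 concentrations 33–0.01 μM.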

[3] = read-out: 27-63 assay EC50, CHO 27-63 stable cell line, luciferase reporter, average of two wells
[4] = read-out: 13B3 EC50, CHO 13B3 stable cell line, luciferase reporter, 48 h, average of two wells

SMILES | Fold Induction, 27-63 Assay, 3.3 uM ([1]; average of two wells) | Fold Induction, 27-63 Assay, 33 uM ([1]; average of two wells) | 27-63 assay Rel Max FI [1] | EC50 [1, 3] | Fold Induction, 13B3 Assay, 33 uM ([2]; average of two wells) | also measured
COc1ccccc1C(=O)N(NC(=O)c1ccc2c(c1)OCCO2)C(C)(C)C [RG-100492] | 4 | 1378 | 0.916 | 11800 nM | 1002 | –
COc1ccc(Cl)cc1C(=O)N(NC(=O)c1ccc2c(c1C)CCCO2)C(C)(C)C [RG-115551] | 1150 | 1068 | 0.684 | 852 nM | 290 | –
CCc1c(C(=O)NN(C(=O)c2cc(OC)c(C)c(OC)c2)C(C)(C)C)ccc2c1OCCO2 [RG-115130] | 4436 | 4096 | 1.375 | 93 nM | 511 | Fold Induction, 13B3 Assay, 3.3 uM ([2]; average of two wells): 987; EC50 [2, 4]: 512 nM
CCc1c(C(=O)NN(C(=O)c2ccc(Cl)cc2OC)C(C)(C)C)ccc2c1OCO2 [RG-115085] | 1143 | 1149 | 0.683 | 807 nM | 236 | –
Cc1c(C(=O)NN(C(=O)c2cc(F)c(F)c(F)c2)C(C)(C)C)ccc2c1CCCO2 [RG-115575, 3,4,5-Trifluoro-benzoic acid N-tert-butyl-N′-(5-methyl-chroman-6-carbonyl)-hydrazide] | – | – | – | – | – | EC50 [2]: 271 nM; 13B3 assay Rel Max FI [2]: 0.641; fold induction at 3.3 µM [2]: 3080; fold induction at 33 µM [2]: 865
CCCC(N(NC(=O)c1cccc(OC)c1CC)C(=O)c1cc(OC)c(C)c(OC)c1)C(C)(C)C (centres unmarked) [RG-115829, 3,5-Dimethoxy-4-methyl-benzoic acid N-(1-tert-butyl-butyl)-N′-(2-ethyl-3-methoxy-benzoyl)-hydrazide] | – | – | 1.264 | – | – | EC50 [1]: 35 nM; fold induction at 3.3 µM ([1]; read-out: Fold Induction, 27-63 Assay, 3.3 uM): 2600; fold induction at 33 µM ([1]; read-out: Fold Induction, 27-63 Assay, 33 uM): 45
CC(=O)c1ccc(C(=O)NN(C(=O)c2cc(C(=O)O)cc(C(=O)O)c2)C(C)(C)C)cc1 [RG-100150] | – | – | – | – | 1 | –
CCc1c(C(=O)NN(C(=O)c2ccc(F)c(C(F)(F)F)c2)C(C)(C)C)ccc2c1OCCO2 [RG-115280] | 9 | 422 | 0.254 | 11000 nM | – | –
CCCC(N(NC(=O)c1cccc(OC)c1C)C(=O)c1cc(C)cc(C)c1)C(C)(C)C (centres unmarked) [RG-115823] | 2093 | 1025 | 1.069 | 11 nM | – | –
CCc1c(OC)cccc1C(=O)NN(C(=O)c1cc(C)cc(C)c1)C(CC)C(C)(C)C (centres unmarked) [RG-115832] | 2063 | 1435 | 1.075 | 35 nM | – | –
COc1ccc(C(=O)N(NC(=O)c2ccc3c(c2C)OCCO3)C(C)(C)C)c(OC)n1 [RG-115517, 2,6-dimethoxy-nicotinic acid N-tert-butyl-N′-(5-methyl-2,3-dihydro-benzo[1,4]dioxine-6-carbonyl)-hydrazide] | – | – | – | – | – | EC50 [2]: 355 nM; 13B3 assay Rel Max FI [2]: 0.675; fold induction at 3.3 µM [2]: 8400; fold induction at 33 µM [2]: 12000
CCc1c(OC)cccc1C(=O)NN(C(=O)c1cc(C)cc(C=NNC(=O)C(N)=O)c1)C(C)(C)C [RG-115613, oxamic hydrazone of N-(3-formyl-5-methyl-benzoyl)-N-tert-butyl-N′-(2-ethyl-3-methoxy-benzoyl) hydrazide] | – | – | – | – | 1726 | Fold Induction, 13B3 Assay, 3.3 uM ([2]; average of two wells): 180; 13B3 assay Rel Max FI [2]: 0.734; EC50 [2, 4]: 5940 nM
CCCC(N(NC(=O)c1cccc(OC)c1CC)C(=O)c1cc(C)cc(C)c1)C(C)(C)C (centres unmarked) [RG-115830] | 2287 | 353 | 1.049 | 36 nM | – | –
COc1cc(C(=O)N(NC(=O)c2ccc3c(c2C)OCCO3)C(C)(C)C)cc(OC)c1O [RG-115009, 4-Hydroxy-3,5-dimethoxy-benzoic acid N-tert-butyl-N′-(5-methyl-2,3-dihydro-benzo[1,4]dioxine-6-carbonyl)-hydrazide] | – | – | – | – | – | EC50 [2]: 18900 nM; 13B3 assay Rel Max FI [2]: 0.917; fold induction at 3.3 µM [2]: 19; fold induction at 33 µM [2]: 2550
